Data taken from paper PMC7252619 (PLoS ONE, 2020).
Where two headings read alike, the source gives them in different places.

How the values were obtained:
Assay in all cases: Kinase activity test (ReactionBiology), % enzyme activity relative to DMSO
Type in all cases: biochemical
DAPK1 = biological target: T1, DAPK1 (Homo sapiens, UniProt P53355); details: DAPK1
T1 construct: purchased ReactionBiology

CK1d = biological target: T2, CK1d (Homo sapiens, UniProt P48730); details: CK1d; for remaining activity at 1 µM / % Enzyme Activity (relative to DMSO controls), Data 1: 1 uM
T2 construct: purchased ReactionBiology
T2 sequence (P48730 whole entry): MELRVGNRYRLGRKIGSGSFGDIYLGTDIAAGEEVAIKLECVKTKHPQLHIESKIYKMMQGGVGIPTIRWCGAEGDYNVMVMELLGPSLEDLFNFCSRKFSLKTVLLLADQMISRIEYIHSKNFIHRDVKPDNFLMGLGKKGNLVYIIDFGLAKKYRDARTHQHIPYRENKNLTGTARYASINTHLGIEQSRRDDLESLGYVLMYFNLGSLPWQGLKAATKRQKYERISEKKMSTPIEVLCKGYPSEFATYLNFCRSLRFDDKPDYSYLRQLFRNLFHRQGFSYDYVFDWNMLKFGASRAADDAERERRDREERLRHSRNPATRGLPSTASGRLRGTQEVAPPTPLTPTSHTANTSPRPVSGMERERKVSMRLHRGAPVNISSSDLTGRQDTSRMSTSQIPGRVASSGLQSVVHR

VEGFR2 = VEGFR2 (Homo sapiens, UniProt P35968); set-up: purchased ReactionBiology; details: VEGFR2; for % Enzyme Activity (relative to DMSO controls), Data 1: replicate Data 1; for % Enzyme Activity (relative to DMSO controls), Data 2: replicate Data 2;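 as to all read-outs here: VEGFR2 was one member of a ten-kinase screening panel testing marketed FDA-approved drugs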
Sequence of VEGFR2 (P35968 20-1356): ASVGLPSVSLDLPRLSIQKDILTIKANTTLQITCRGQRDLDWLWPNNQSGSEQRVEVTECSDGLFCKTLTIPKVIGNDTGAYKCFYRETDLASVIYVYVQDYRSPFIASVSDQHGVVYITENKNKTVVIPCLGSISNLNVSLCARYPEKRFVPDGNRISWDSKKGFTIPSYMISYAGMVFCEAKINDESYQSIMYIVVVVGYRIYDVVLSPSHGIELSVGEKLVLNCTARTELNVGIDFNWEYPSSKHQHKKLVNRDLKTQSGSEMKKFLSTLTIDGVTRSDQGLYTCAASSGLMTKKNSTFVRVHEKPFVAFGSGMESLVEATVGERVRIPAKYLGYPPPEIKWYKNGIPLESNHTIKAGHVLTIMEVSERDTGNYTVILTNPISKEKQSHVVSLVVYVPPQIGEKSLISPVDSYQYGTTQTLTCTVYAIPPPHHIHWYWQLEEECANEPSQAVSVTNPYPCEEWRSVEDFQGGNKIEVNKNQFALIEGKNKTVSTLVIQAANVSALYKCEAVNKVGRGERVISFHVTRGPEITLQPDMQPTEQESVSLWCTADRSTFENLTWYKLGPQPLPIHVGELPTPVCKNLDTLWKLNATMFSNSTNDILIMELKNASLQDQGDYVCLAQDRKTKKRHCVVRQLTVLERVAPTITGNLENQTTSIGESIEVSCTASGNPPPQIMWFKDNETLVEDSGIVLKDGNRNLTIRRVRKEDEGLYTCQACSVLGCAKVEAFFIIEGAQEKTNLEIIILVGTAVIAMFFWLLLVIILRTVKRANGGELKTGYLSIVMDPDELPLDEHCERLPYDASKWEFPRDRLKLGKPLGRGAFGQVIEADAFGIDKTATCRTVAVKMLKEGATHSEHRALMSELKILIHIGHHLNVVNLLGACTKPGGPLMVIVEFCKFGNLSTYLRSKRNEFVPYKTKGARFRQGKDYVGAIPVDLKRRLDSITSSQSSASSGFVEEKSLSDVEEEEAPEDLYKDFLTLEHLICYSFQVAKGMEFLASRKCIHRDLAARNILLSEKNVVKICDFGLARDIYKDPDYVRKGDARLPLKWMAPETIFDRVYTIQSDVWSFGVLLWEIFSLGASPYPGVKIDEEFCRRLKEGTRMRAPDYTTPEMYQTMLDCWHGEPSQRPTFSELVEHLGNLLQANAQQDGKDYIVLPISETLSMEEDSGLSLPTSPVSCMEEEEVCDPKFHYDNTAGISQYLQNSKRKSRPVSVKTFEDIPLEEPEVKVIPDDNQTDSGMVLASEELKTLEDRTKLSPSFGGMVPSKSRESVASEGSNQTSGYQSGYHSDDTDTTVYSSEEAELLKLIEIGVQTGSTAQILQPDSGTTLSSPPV

[1] = 10 uM, Average, read-out: % Enzyme Activity (relative to DMSO controls), Average
[2] = 10 uM, replicate Data 1, read-out: % Enzyme Activity (relative to DMSO controls), Data 1
[3] = 10 uM, replicate Data 2, read-out: % Enzyme Activity (relative to DMSO controls), Data 2

T1 sequence (P53355 whole entry): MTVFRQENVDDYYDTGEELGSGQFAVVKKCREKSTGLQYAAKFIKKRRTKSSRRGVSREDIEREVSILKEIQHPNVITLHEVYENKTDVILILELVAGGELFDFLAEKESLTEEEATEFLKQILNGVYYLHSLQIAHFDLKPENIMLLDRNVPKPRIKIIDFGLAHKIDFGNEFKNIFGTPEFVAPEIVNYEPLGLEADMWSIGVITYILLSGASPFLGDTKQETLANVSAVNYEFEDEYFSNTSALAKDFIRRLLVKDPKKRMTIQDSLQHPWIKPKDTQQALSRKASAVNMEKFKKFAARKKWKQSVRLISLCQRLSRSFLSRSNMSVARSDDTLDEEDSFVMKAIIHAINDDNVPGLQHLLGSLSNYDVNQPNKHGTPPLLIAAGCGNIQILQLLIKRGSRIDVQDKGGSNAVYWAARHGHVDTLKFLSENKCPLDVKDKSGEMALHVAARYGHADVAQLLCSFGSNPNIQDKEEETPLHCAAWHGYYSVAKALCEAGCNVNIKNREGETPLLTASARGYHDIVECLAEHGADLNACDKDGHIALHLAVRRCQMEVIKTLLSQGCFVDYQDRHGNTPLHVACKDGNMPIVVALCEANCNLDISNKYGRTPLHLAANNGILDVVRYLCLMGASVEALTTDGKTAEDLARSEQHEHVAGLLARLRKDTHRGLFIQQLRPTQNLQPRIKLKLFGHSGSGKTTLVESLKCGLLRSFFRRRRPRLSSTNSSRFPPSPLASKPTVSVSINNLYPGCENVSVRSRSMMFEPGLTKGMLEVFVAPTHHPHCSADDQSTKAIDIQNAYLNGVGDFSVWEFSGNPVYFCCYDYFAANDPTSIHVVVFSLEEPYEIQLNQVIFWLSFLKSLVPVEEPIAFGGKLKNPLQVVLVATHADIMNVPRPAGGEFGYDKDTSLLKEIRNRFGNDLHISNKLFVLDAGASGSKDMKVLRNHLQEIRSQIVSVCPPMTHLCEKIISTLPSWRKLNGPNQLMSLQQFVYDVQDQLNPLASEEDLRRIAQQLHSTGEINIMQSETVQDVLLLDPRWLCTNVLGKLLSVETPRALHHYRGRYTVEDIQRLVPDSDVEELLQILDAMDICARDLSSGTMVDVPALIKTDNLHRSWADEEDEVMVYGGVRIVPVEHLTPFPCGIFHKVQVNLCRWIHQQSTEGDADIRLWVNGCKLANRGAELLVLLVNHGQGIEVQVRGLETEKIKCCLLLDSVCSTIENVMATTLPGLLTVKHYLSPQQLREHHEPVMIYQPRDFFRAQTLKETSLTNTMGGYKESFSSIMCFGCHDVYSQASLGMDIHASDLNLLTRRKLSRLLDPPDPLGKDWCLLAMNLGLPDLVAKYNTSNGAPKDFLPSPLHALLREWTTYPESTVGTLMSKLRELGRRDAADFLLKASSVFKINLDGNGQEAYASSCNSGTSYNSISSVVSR

Structure (SMILES) | % Enzyme Activity (relative to DMSO controls), Data 1 (DAPK1; 1 uM, replicate Data 1) [%] | % Enzyme Activity (relative to DMSO controls), Data 1 (DAPK1; 10 uM, replicate Data 1) [%] | % Enzyme Activity (relative to DMSO controls), Data 1 (CK1d; replicate Data 1) [%] | % Enzyme Activity (relative to DMSO controls), Data 1 (VEGFR2; 1 uM) [%] | % Enzyme Activity (relative to DMSO controls), Data 1 (VEGFR2; 10 uM) [%] | % Enzyme Activity (relative to DMSO controls), Average (DAPK1; 1 uM, Average) [%] | % Enzyme Activity (relative to DMSO controls), Average (DAPK1; 10 uM, Average) [%] | % Enzyme Activity (relative to DMSO controls), Data 2 (DAPK1; 10 uM, replicate Data 2) [%] | % Enzyme Activity (relative to DMSO controls), Data 2 (VEGFR2; 10 uM) [%] | also measured
CC(C)(C)NC(=O)[C@@H]1C[C@@H]2CCCC[C@@H]2CN1C[C@@H](O)[C@H](Cc1ccccc1)NC(=O)[C@H](CC(N)=O)NC(=O)c1ccc2ccccc2n1 [Saquinavir, reference compound] | – | – | – | – | – | – | – | – | – | remaining activity at 1 µM (DAPK1; 1 uM, Average, read-out: % Enzyme Activity (relative to DMSO controls), Average): 87.1%; remaining activity at 1 µM (DAPK1; 1 uM, replicate Data 1, read-out: % Enzyme Activity (relative to DMSO controls), Data 1): 88.8%; remaining activity at 1 µM (DAPK1; 1 uM, replicate Data 2, read-out: % Enzyme Activity (relative to DMSO controls), Data 2): 85.3%; remaining activity at 10 µM (DAPK1; [1]): 27.8%; remaining activity at 10 µM (DAPK1; [2]): 27.8%; remaining activity at 10 µM (DAPK1; [3]): 27.8%; remaining activity at 1 µM (DAPK1; compound 1μM, relative to DMSO controls, read-out: % Enzyme activity at 1μM): 87.1%; remaining activity at 10 µM (DAPK1; compound 10μM, relative to DMSO controls, read-out: % Enzyme activity at 10μM): 27.8%; remaining activity at 1 µM (CK1d; Average, read-out: % Enzyme Activity (relative to DMSO controls), Average): 109%; remaining activity at 1 µM (CK1d; replicate Data 1, read-out: % Enzyme Activity (relative to DMSO controls), Data 1): 107%; remaining activity at 1 µM (CK1d; replicate Data 2, read-out: % Enzyme Activity (relative to DMSO controls), Data 2): 111%; remaining activity at 10 µM (CK1d; [1]): 121%; remaining activity at 10 µM (CK1d; [2]): 123%; remaining activity at 10 µM (CK1d; [3]): 119%
CC(C)CN(C[C@@H](O)[C@H](Cc1ccccc1)NC(=O)O[C@H]1CO[C@H]2OCC[C@H]21)S(=O)(=O)c1ccc(N)cc1 [Darunavir] | 101.48 | 82.12 | 116.81 | 105.45 | 98.21 | – | – | – | – | –
Cc1ccc(Cl)c(Nc2ccccc2C(=O)O)c1Cl [Meclofenamate] | 121.09 | 115.51 | 125.84 | 108.3 | 109.87 | – | – | – | – | –
Cc1ccc(Nc2c(F)cccc2Cl)c(CC(=O)O)c1 [Lumiracoxib] | – | – | – | – | – | 98.27 | 101.02 | – | – | % Enzyme Activity (relative to DMSO controls), Average (CK1d; 10 uM, Average): 99.41%
CN1[C@@H]2CC[C@H]1C[C@@H](OC(=O)c1c[nH]c3ccccc13)C2 [Tropisetron] | 103.12 | 92.93 | – | 99.56 | 102.27 | 100.48 | 91.18 | 89.43 | 93.19 | % Enzyme Activity (relative to DMSO controls), Data 2 (DAPK1; 1 uM, replicate Data 2): 97.84%; % Enzyme Activity (relative to DMSO controls), Average (VEGFR2; 1 uM): 100.61%; % Enzyme Activity (relative to DMSO controls), Data 2 (VEGFR2; 1 uM): 101.65%; % Enzyme Activity (relative to DMSO controls), Average (VEGFR2; 10 uM): 97.73%
N=C(N)c1ccc(OCCCCCOc2ccc(C(=N)N)cc2)cc1 [Pentamidine] | – | – | – | – | – | – | – | 88.42 | 93.27 | –
